Drawing on PubChem BioAssay AID306 (DTP/NCI, 2004), this text covers T/C for twelve compounds.

For the assay, the system named is BDF1 mice, L1210 Methyl-GAG-resistant leukemia, survival T/C. Put plainly: NCI In Vivo Anticancer Drug Screen. Data for tumor model L1210 Leukemia resistant to Methyl-GAG; NSC 32946 (subcutaneous) in B6D2F1 (BDF1) mice. Conditions: endpoint: mean survival time, higher = longer survival. The protocol:
The antitumor activity of compounds was measured in mice bearing transplantable tumors. Survival or tumor size were measured and the results are expressed as the measurement made in the treated group (T) divided by the measurement made in the vehicle treated control group (C). The tumor model used in this assay is L1210 Leukemia resistant to Methyl-GAG; NSC 32946 (subcutaneous) in B6D2F1 (BDF1) mice

Where [1] appears, read: dose: 7.5 mg/kg/injection, schedule: Q01DX Z (ip), vehicle: carboxymethylcellulose (CMC).
[2] abbreviates: dose: 12.5 mg/kg/injection, schedule: Q01DX Z (ip), vehicle: carboxymethylcellulose (CMC).
The mark [3] stands for this setting: dose: 25.0 mg/kg/injection, schedule: Q01DX Z (ip), vehicle: carboxymethylcellulose (CMC).
Setting [4] is: dose: 50.0 mg/kg/injection, schedule: Q01DX Z (ip), vehicle: carboxymethylcellulose (CMC).
The mark [5] stands for this setting: dose: 100.0 mg/kg/injection, schedule: Q01DX Z (ip), vehicle: carboxymethylcellulose (CMC).

Values joined by “and” are separate entries in the source; they are usually repeats but may differ in a detail not shown here. Identical values can stand only once. Inconclusive results and toxic doses are left out.

Consider `Cc1n[nH]c(=O)[nH]c1=O`, for which the T/C reads like this: (dose: 0.8 mg/kg/injection, schedule: Q01DX Z (ip), vehicle: other) 100 % of control; (dose: 1.6 mg/kg/injection, schedule: Q01DX Z (ip), vehicle: other) 102 % of control; (dose: 3.1 mg/kg/injection, schedule: Q01DX Z (ip), vehicle: other) 98 % of control; (dose: 6.25 mg/kg/injection, schedule: Q01DX Z (ip), vehicle: other) 120 % of control; (dose: 6.3 mg/kg/injection, schedule: Q01DX Z (ip), vehicle: other) 100 % of control; (dose: 12.5 mg/kg/injection, schedule: Q01DX Z (ip), vehicle: other) 101 % of control. The T/C is 100 % of control (dose: 25.0 mg/kg/injection, schedule: Q01DX Z (ip), vehicle: other); 95 % of control and 103 % of control (dose: 50.0 mg/kg/injection, schedule: Q01DX Z (ip), vehicle: other); 91 % of control (dose: 100.0 mg/kg/injection, schedule: Q01DX Z (ip), vehicle: other); 88 % of control (dose: 200.0 mg/kg/injection, schedule: Q01DX Z (ip), vehicle: other); 89 % of control (dose: 400.0 mg/kg/injection, schedule: Q01DX Z (ip), vehicle: other).
Turning to `N=[N+]=CC(=O)OCC(N)C(=O)O` (configuration not stated), the T/C is, setting by setting: (dose: 1.56 mg/kg/injection, schedule: Q01DX Z (ip), vehicle: saline) 104 % of control; (dose: 3.12 mg/kg/injection, schedule: Q01DX Z (ip), vehicle: saline) 104 % of control; (dose: 4.7 mg/kg/injection, schedule: Q01DX Z (ip), vehicle: saline) 100 % of control; (dose: 12.5 mg/kg/injection, schedule: Q01DX Z (ip), vehicle: saline) 156 % of control and 150 % of control; (dose: 18.8 mg/kg/injection, schedule: Q01DX Z (ip), vehicle: saline) 104 % of control; (dose: 25.0 mg/kg/injection, schedule: Q01DX Z (ip), vehicle: saline) 116 % of control.
For `C=CC(CN1CC1)OC(C)=O` (configuration not stated), the T/C is 100 % of control (dose: 0.95 mg/kg/injection, schedule: Q01DX Z (ip), vehicle: carboxymethylcellulose (CMC)); 118 % of control (dose: 1.9 mg/kg/injection, schedule: Q01DX Z (ip), vehicle: carboxymethylcellulose (CMC)); 118 % of control (dose: 3.8 mg/kg/injection, schedule: Q01DX Z (ip), vehicle: carboxymethylcellulose (CMC)); 120 % of control under setting [1].
Regarding `C[C@H]1C(=O)O[C@@H]2CCN3CC=C(COC(=O)[C@](C)(O)[C@@]1(C)O)[C@H]23`, the T/C was 94 % of control (dose: 1.88 mg/kg/injection, schedule: Q01DX Z (ip), vehicle: carboxymethylcellulose (CMC)); 96 % of control (dose: 3.75 mg/kg/injection, schedule: Q01DX Z (ip), vehicle: carboxymethylcellulose (CMC)); 92 % of control under setting [1]; 92 % of control and 99 % of control (dose: 15.0 mg/kg/injection, schedule: Q01DX Z (ip), vehicle: carboxymethylcellulose (CMC)); 105 % of control (dose: 30.0 mg/kg/injection, schedule: Q01DX Z (ip), vehicle: carboxymethylcellulose (CMC)); 106 % of control (dose: 60.0 mg/kg/injection, schedule: Q01DX Z (ip), vehicle: carboxymethylcellulose (CMC)). Moreover, the T/C (dose: 120.0 mg/kg/injection, schedule: Q01DX Z (ip), vehicle: carboxymethylcellulose (CMC)) is 113 % of control.
As for `CCOC(=O)NP(=O)(N1CC1(C)C)N1CC1(C)C` (configuration not stated), the T/C is 95 % of control (dose: 62.5 mg/kg/injection, schedule: Q01DX Z (ip), vehicle: carboxymethylcellulose (CMC)); 95 % of control (dose: 125.0 mg/kg/injection, schedule: Q01DX Z (ip), vehicle: carboxymethylcellulose (CMC)); 97 % of control (dose: 250.0 mg/kg/injection, schedule: Q01DX Z (ip), vehicle: carboxymethylcellulose (CMC)); 93 % of control (dose: 500.0 mg/kg/injection, schedule: Q01DX Z (ip), vehicle: carboxymethylcellulose (CMC)).
With `C[N+](C)(C)c1ncnc2nc[nH]c12`, the T/C under setting [2] was 101 % of control; the T/C under setting [3] was 103 % of control; the T/C under setting [4] is 101 % of control and 112 % of control; the T/C under setting [5] is 94 % of control and 117 % of control; the T/C (dose: 200.0 mg/kg/injection, schedule: Q01DX Z (ip), vehicle: carboxymethylcellulose (CMC)) was 102 % of control.
Take `Cn1cnc([N+](=O)[O-])c1Sc1ncnc2nc[nH]c12`: the T/C was 105 % of control under setting [2], 103 % of control under setting [3], 124 % of control under setting [4] and 88 % of control under setting [5].
As to `CC(=O)N(C)C`, the T/C was 100 % of control (dose: 125.0 mg/kg/injection, schedule: Q01DX Z (ip), vehicle: saline); 94 % of control (dose: 250.0 mg/kg/injection, schedule: Q01DX Z (ip), vehicle: saline); 102 % of control (dose: 500.0 mg/kg/injection, schedule: Q01DX Z (ip), vehicle: saline); 109 % of control (dose: 1000.0 mg/kg/injection, schedule: Q01DX Z (ip), vehicle: saline); 105 % of control (dose: 2000.0 mg/kg/injection, schedule: Q01DX Z (ip), vehicle: saline); 154 % of control (dose: 4000.0 mg/kg/injection, schedule: Q01DX Z (ip), vehicle: saline).
In the case of `CC[C@@H](c1ccc(O)cc1)[C@@H](CC)c1ccc(O)cc1`, the T/C (dose: 16.0 mg/kg/injection, schedule: Q01DX Z (sc), vehicle: steriod suspending solution) was 96 % of control; the T/C (dose: 32.0 mg/kg/injection, schedule: Q01DX Z (sc), vehicle: steriod suspending solution) was 96 % of control; the T/C (dose: 62.5 mg/kg/injection, schedule: Q01DX Z (sc), vehicle: steriod suspending solution) is 100 % of control; the T/C (dose: 125.0 mg/kg/injection, schedule: Q01DX Z (sc), vehicle: steriod suspending solution) is 100 % of control; the T/C (dose: 250.0 mg/kg/injection, schedule: Q01DX Z (sc), vehicle: steriod suspending solution) is 108 % of control; the T/C (dose: 500.0 mg/kg/injection, schedule: Q01DX Z (sc), vehicle: steriod suspending solution) is 98 % of control and 101 % of control. Also, the T/C (dose: 1000.0 mg/kg/injection, schedule: Q01DX Z (sc), vehicle: steriod suspending solution) was 95 % of control.
In the case of `c1ccc(CNc2ncnc3[nH]ncc23)cc1`, the T/C by setting is: (dose: 0.97 mg/kg/injection, schedule: Q01DX Z (ip), vehicle: carboxymethylcellulose (CMC)) 107 % of control; (dose: 1.95 mg/kg/injection, schedule: Q01DX Z (ip), vehicle: carboxymethylcellulose (CMC)) 102 % of control; (dose: 3.9 mg/kg/injection, schedule: Q01DX Z (ip), vehicle: carboxymethylcellulose (CMC)) 108 % of control and 121 % of control; (dose: 7.8 mg/kg/injection, schedule: Q01DX Z (ip), vehicle: carboxymethylcellulose (CMC)) 100 % of control and 103 % of control; (dose: 15.5 mg/kg/injection, schedule: Q01DX Z (ip), vehicle: carboxymethylcellulose (CMC)) 107 % of control; (dose: 31.0 mg/kg/injection, schedule: Q01DX Z (ip), vehicle: carboxymethylcellulose (CMC)) 110 % of control.
With `CN(C)c1ccc(/C=C\c2ccnc3ccccc23)cc1`, the T/C reads like this: (dose: 0.4 mg/kg/injection, schedule: Q01DX Z (ip), vehicle: water) 97 % of control and 107 % of control; (dose: 0.8 mg/kg/injection, schedule: Q01DX Z (ip), vehicle: water) 89 % of control and 105 % of control; (dose: 1.6 mg/kg/injection, schedule: Q01DX Z (ip), vehicle: water) 104 % of control; (dose: 3.1 mg/kg/injection, schedule: Q01DX Z (ip), vehicle: water) 101 % of control; (dose: 6.25 mg/kg/injection, schedule: Q01DX Z (ip), vehicle: water) 90 % of control; (dose: 12.5 mg/kg/injection, schedule: Q01DX Z (ip), vehicle: water) 95 % of control. Besides, the T/C (dose: 25.0 mg/kg/injection, schedule: Q01DX Z (ip), vehicle: water) is 104 % of control; the T/C (dose: 50.0 mg/kg/injection, schedule: Q01DX Z (ip), vehicle: water) was 97 % of control and 107 % of control.
On to `Cn1cnc([N+](=O)[O-])c1Sc1nc(N)nc2nc[nH]c12`, for which the T/C is 98 % of control (dose: 1.0 mg/kg/injection, schedule: Q01DX Z (ip), vehicle: carboxymethylcellulose (CMC)); 106 % of control (dose: 2.0 mg/kg/injection, schedule: Q01DX Z (ip), vehicle: carboxymethylcellulose (CMC)); 162 % of control (dose: 4.0 mg/kg/injection, schedule: Q01DX Z (ip), vehicle: carboxymethylcellulose (CMC)); 88 % of control (dose: 8.0 mg/kg/injection, schedule: Q01DX Z (ip), vehicle: carboxymethylcellulose (CMC)).
